Results on five compounds are retold here after patent US4737510A, “Bioactive metabolites from the caribbean sponge agelas coniferin” (priority 1986, dated 1988).

The structures appear in SMILES notation. Values joined by “and” are separate entries in the source; they are usually repeats but may differ in a detail not shown here. Identical values can stand only once. Like-named read-outs stand apart in the source and are kept apart here. Bounds are passed on as bounds.

Series [1] has as its system Escherichia coli. Kind of series: Disc diffusion antimicrobial assay, Escherichia coli. It counts as cell-based. The note with it: for zone of inhibition at 10 µg/disc / zone of inhibition at 50 µg/disc / zone of inhibition at 100 µg/disc: Escherichia coli, 6.5 mm disc, read-out: diameter of the clear zone of inhibition; for zone of inhibition at 50 µg/disc: 50 μg/disk; for zone of inhibition at 100 µg/disc: 100 μg/disk.

Series [2] concerns Herpes Simplex Virus type 1 (HSV-1). Put plainly: Antiviral activity against HSV-1 determined by Dr. R. G. Hughes, Jr.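 Also: grades: +++ strong ++ moderate + light ± questionable - negative.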 It counts as cell-based.
The subject of series [3] is Herpes simplex virus, type I (HSV-1). Kind of series: microbe, parasite or virus in culture. It counts as cell-based. The note with it: for zone of inhibition at 20 µg/disc / zone of inhibition at 50 µg/disc / zone of inhibition at 100 µg/disc / zone of inhibition at 200 µg/disc: Human alphaherpesvirus 1, in Primates.
In series [4] the test system is E. coli strain BR339. It counts as cell-based.
Series [5] deals with vesicular stomatitis virus (VSV). Kind of series: microbe, parasite or virus in culture. The note with it: Vesicular stomatitis virus, in Primates. It counts as cell-based.
Series [6] deals with Bacillus subtilis. Kind of series: Disc diffusion antimicrobial assay, Bacillus subtilis. It counts as cell-based. As to conditions: for zone of inhibition at 10 µg/disc / zone of inhibition at 50 µg/disc / zone of inhibition at 100 µg/disc: Bacillus subtilis, 6.5 mm disc, read-out: diameter of the clear zone of inhibition; for zone of inhibition at 50 µg/disc: 50 μg/disk; for zone of inhibition at 100 µg/disc: 100 μg/disk. (In general: A growth-free zone around the sample is the usual read-out of agar diffusion tests.)

Series [7] concerns Monkey Kidney Cells (CV-1). Kind of series: Cytotoxicity to monkey kidney cells (CV-1) determined by Dr. R. G. Hughes, Jr. As to conditions: 8 or less essentially indicates noncytotoxicity.
Series [8] concerns monkey kidney (CV-1) cells. Put plainly: Cytotoxicity to monkey kidney (CV-1) cells. The note with it: all concentrations (200, 100, 50, 20 μg/disk).
The subject of series [9] is KB carcinoma. The note with it: cited from earlier work.
The test system of series [10] is Balanus amphitrite amphitrite. Put plainly: Barnacle settlement assay, inhibition. It counts as in vivo, Balanus amphitrite amphitrite (barnacle). The note with it: Amphibalanus amphitrite.
The test system of series [11] is Balanus amphitrite amphitrite. Put plainly: Barnacle settlement assay, facilitation. It counts as in vivo, Balanus amphitrite amphitrite (barnacle). As to conditions: Amphibalanus amphitrite.
Series [12] in a line: Stability of isolated solids. It counts as physicochemical. As to conditions: diacetate salts, amorphous solids.
Series [13] in a line: Water solubility (in words). It counts as physicochemical. The note with it: relative to 1a-6a.
The subject of series [14] is serotonergic receptor. The note with it: cited from earlier work.
[15] abbreviates: read-out: antiviral activity, HSV-1, ++ scale.
Where [16] appears, read: read-out: antiviral activity, HSV-1, zone diameter.
Where [17] appears, read: read-out: antiviral activity, VSV, ++ scale.
Setting [18] is: read-out: antiviral activity, VSV, zone diameter.

Turning to `Nc1ncc(C2c3nc(N)[nH]c3CC(CNC(=O)c3cc(Br)c(Br)[nH]3)C2CNC(=O)c2cc(Br)c(Br)[nH]2)[nH]1` (stereo not drawn) [Compound 6a, Dibromoageliferin Acetate], the values for the zone of inhibition at 10 µg/disc in series [1] (10 μg/disk) and in series [6] (10 μg/disk) were 0 mm and 8 mm, respectively. Further, the zone of inhibition at 50 µg/disc in [1] was 7 mm; in series [3] (setting [15]) it was 11 to 15 mm; in [3] (setting [16]), 11 mm; in [5] (setting [17]), 8 to 10 mm; in series [5] (setting [18]), 8 mm; in series [6] it was 9 mm. The zone of inhibition at 100 µg/disc is 7 mm in [1]; 11 to 15 mm in [3] (setting [15]); 11 mm in series [3] (setting [16]); 8 to 10 mm in series [5] (setting [17]); 9 mm in [5] (setting [18]); 9 mm in [6]. The HSV-1 activity entry was “-” in series [2] (25 μg/disk), “±” in series [2] (50 μg/disk) and “±” in [2] (100 μg/disk). Besides, the zone of inhibition at 20 µg/disc in series [3] (setting [15]) is 8 to 10 mm; in series [3] (setting [16]), 9 mm; in series [5] (setting [17]), below 7 mm; in [5] (setting [18]), 0 mm. Also, the zone of inhibition at 200 µg/disc in series [3] (setting [15]) is 11 to 15 mm; in series [3] (setting [16]), 12 mm; in series [5] (setting [17]), 8 to 10 mm; in series [5] (setting [18]) it was 10 mm. The “BIA activity, numerical color intensity scale 0-10” value in series [4] is 2. Besides, the results for the “cytotoxicity, zone diameter” value in series [7] (25 μg/disk), in [7] (50 μg/disk) and in series [7] (100 μg/disk) were 6 mm, 8 mm and 10 mm, respectively. The “traces of cytotoxicity, zone” value in series [8] is recorded as at most 8 mm.
Take `N=C(N)NC(=O)c1cc(Br)c[nH]1` [N-amidino-4-bromopyrrole-2-carboxamide]: in series [9], the “effect on KB carcinoma” value is listed as “KB carcinoma-altering”.
Broadly, the EC50 is the midpoint of the concentration-response curve. Take `Nc1ncc([C@@H]2[C@@H](CNC(=O)c3cc(Br)c[nH]3)[C@H](CNC(=O)c3cc(Br)c[nH]3)[C@H]2c2cnc(N)[nH]2)[nH]1` (relative stereo) [Compound 2a, Sceptrin Acetate]: the “activity against Escherichia coli” value in series [1] (10 μg/disk) is listed as “active”. For the same compound, the zone of inhibition at 10 µg/disc turned out to be 7 mm in series [1] (10 μg/disk) and 9 mm in [6] (10 μg/disk). Further, the zone of inhibition at 50 µg/disc in [1] is 10 mm; in series [3] (setting [15]) it was 11 to 15 mm; in [3] (setting [16]), 13 mm; in [5] (setting [17]), 8 to 10 mm; in [5] (setting [18]), 8 mm; in series [6] it was 16 mm. Also, the zone of inhibition at 100 µg/disc in series [1] was 11 mm; in series [3] (setting [15]) it was 11 to 15 mm; in [3] (setting [16]) it was 13 mm; in [5] (setting [17]), 11 to 15 mm; in series [5] (setting [18]), 11 mm; in [6], 17 mm. The results for the HSV-1 activity result in series [2] (25 μg/disk), in series [2] (50 μg/disk) and in series [2] (100 μg/disk) were “-”, “+++” and “++”, respectively. The figures for the EC50 in series [10] and in series [11] were 44 µg/mL and 0.029 µg/mL, respectively. Also, the zone of inhibition at 20 µg/disc was 11 to 15 mm in [3] (setting [15]), 11 mm in series [3] (setting [16]), 7 mm in series [5] (setting [17]) and 7 mm in [5] (setting [18]). The zone of inhibition at 200 µg/disc is above 16 mm in series [3] (setting [15]), 21 mm in [3] (setting [16]), 11 to 15 mm in [5] (setting [17]) and 13 mm in [5] (setting [18]). In series [4], the “BIA activity” value is “inducers”. The “BIA activity, numerical color intensity scale 0-10” value in series [4] was 9 and 6. Further, the “growth inhibition of Bacillus subtilis” value in series [6] (10 μg/disk) is recorded as “most active”. The “cytotoxicity, zone diameter” value turned out to be 5 mm in [7] (25 μg/disk), 5 mm in series [7] (50 μg/disk) and 7 mm in [7] (100 μg/disk).
On to `NC1=NC(=O)C(C2C(CNC(=O)c3cc(Br)c[nH]3)C(CNC(=O)c3cc(Br)c[nH]3)C2c2cnc(N)[nH]2)N1` (stereo not drawn) [Compound 8a, Oxysceptrin Acetate], for which the zone of inhibition at 10 µg/disc in series [1] (10 μg/disk) and in series [6] (10 μg/disk) was 0 mm throughout. Also, the zone of inhibition at 50 µg/disc in [1] is 8 mm; in series [3] (setting [15]), 8 to 10 mm; in series [5] (setting [17]), below 7 mm; in series [5] (setting [18]) it was 0 mm; in [6] it was 14 mm. Also, the zone of inhibition at 100 µg/disc in [1] was 10 mm; in series [3] (setting [15]), 11 to 15 mm; in [3] (setting [16]), 11 mm; in series [5] (setting [17]), 8 to 10 mm; in [5] (setting [18]) it was 8 mm; in series [6] it was 15 mm. For the same compound, the HSV-1 activity entry in series [2] (25 μg/disk) was “-”; in [2] (50 μg/disk), “-”; in [2] (100 μg/disk) it was “+”. Moreover, in series [3], the “antiviral zone appearance” value is given as “diffuse zones”. For the same compound, the zone of inhibition at 20 µg/disc was below 7 mm in [3] (setting [15]), 0 mm in series [3] (setting [16]), below 7 mm in [5] (setting [17]) and 0 mm in [5] (setting [18]). Moreover, the results for the zone of inhibition at 200 µg/disc in series [3] (setting [15]), in series [3] (setting [16]) and in series [5] (setting [17]) were 11 to 15 mm, 12 mm and 8 to 10 mm, respectively. For the same compound, the “BIA activity” value in series [4] is recorded as “inducers”. The “BIA activity, numerical color intensity scale 0-10” value in [4] was 9 and 6. In addition, the “BIA zone appearance” value in series [4] is given as “more diffuse zone”. Moreover, the “cytotoxicity, zone diameter” value in [7] (25 μg/disk) came to 5 mm; in series [7] (50 μg/disk) it was 5 mm; in [7] (100 μg/disk) it was 6 mm. Also, the “stability” value in series [12] was “stable”. For the same compound, the midpoint of the response in series [11], the EC50, lay at 0.017 µg/mL. The “water solubility” value in [13] was “more water soluble”.
As for `Cn1c(/C=C\CNC(=O)c2cc(Br)c[nH]2)cnc1N` [Keramidine], in series [14], the “serotonergic receptor activity” value is reported as “serotonergic receptor antagonist”.
